In US6534524B1, “Indazole compounds and pharmaceutical compositions for inhibiting protein kinases, and methods for their use” (Agouron Pharmaceuticals, Inc., priority 1999, dated 2003):

Tested on: human umbilical vein endothelial cells (HUVEC)
Test: HUVEC proliferation assay (VEGF-stimulated, MTT);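 further: relative to VEGF-stimulated control minus starvation-medium baseline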
Type: cell-based
Conditions: crude reaction mixtures
Method: HUVEC Proliferation Assay
This assay determines the ability of a test compound to inhibit the growth factor-stimulated proliferation of human umbilical vein endothelial cells (“HUVEC”). HUVEC cells (passage 3-4, Clonetics, Corp.) were thawed into EGM2 culture medium (Clonetics Corp) in T75 flasks. Fresh EGM2 medium was added to the flasks 24 hours later. Four or five days later, cells were exposed to another culture medium (F12K medium supplemented with 10% fetal bovine serum (FBS), 60 μg/mL endothelial cell growth supplement (ECGS), and 0.1 mg/mL heparin). Exponentially-growing HUVEC cells were used in experiments thereafter. Ten to twelve thousand HUVEC cells were plated in 96-well dishes in 100 μl of rich, culture medium (described above). The cells were allowed to attach for 24 hours in this medium. The medium was then removed by aspiration and 105 μl of starvation media (F12K+1% FBS) was added to each well. After 24 hours, 15 μl of test agent dissolved in 1% DMSO in starvation medium or this vehicle alone was added into each treatment well; the final DMSO concentration was 0.1%. One hour later, 30 μl of VEGF (30 ng/mL) in starvation media was added to all wells except those containing untreated controls; the final VEGF concentration was 6 ng/mL. Cellular proliferation was quantified 72 hours later by MTT dye reduction, at which time cells were exposed for 4 hours MTT (Promega Corp.).
For screening compound library plates, one or two concentrations (one well per concentration) were employed, and the % inhibition was calculated by the following formula:
% inhibition=(control−test)÷(control−starvation)
% inhibition=(control-treated)/(control-starvation)×100

[1] = Library I, Y = CO, nominal concentration of 10 nM
[2] = Library I, Y = NH, nominal concentration of 10 nM
[3] = Library I, Y = O, nominal concentration of 10 nM
[4] = Library II, Y=S, 0.5 mM (column head; text: nominal 0.5 nM)
[5] = Library II, Y=S, 2 mM (column head; text: nominal 2 nM)

In the case of O=C(Nc1cccnc1)c1ccc2c(-c3nc4ccccc4[nH]3)n[nH]c2c1, the “% inhibition of the proliferation of HUVEC” value (“% inhibition” for short) [1] is reported as −2%, the “% inhibition” value [2] is reported as 17% and the “% inhibition” value [3] is reported as 25%.
O=C(Nc1ccccc1)c1ccc2c(-c3nc4ccccc4[nH]3)n[nH]c2c1 was tested, and the “% inhibition” value [1] was 3%, the “% inhibition” value [2] was 16% and the “% inhibition” value [3] was 24%.
O=C(NCCCO)c1ccc2c(-c3nc4ccccc4[nH]3)n[nH]c2c1 was tested, and the “% inhibition” value [1] was 5%, the “% inhibition” value [2] was 16% and the “% inhibition” value [3] was 25%.
In the case of O=C(NCCN1CCOCC1)c1ccc2c(-c3nc4ccccc4[nH]3)n[nH]c2c1, the “% inhibition” value [1] is reported as −1%, the “% inhibition” value [2] is reported as 15% and the “% inhibition” value [3] is reported as 30%.
In the case of O=C(Nc1ccncc1)c1ccc2c(-c3nc4ccccc4[nH]3)n[nH]c2c1, the “% inhibition” value [1] is reported as 33%, the “% inhibition” value [2] is reported as 13% and the “% inhibition” value [3] is reported as 42%.
NC(=O)C1CCCN(C(=O)c2ccc3c(-c4nc5ccccc5[nH]4)n[nH]c3c2)C1 (stereo not drawn) was tested, and the “% inhibition” value [1] was 3%, the “% inhibition” value [2] was 13% and the “% inhibition” value [3] was 36%.
With CC(=O)NCCNC(=O)c1ccc2c(-c3nc4ccccc4[nH]3)n[nH]c2c1 the “% inhibition” value [1] was 14%, the “% inhibition” value [2] was 12% and the “% inhibition” value [3] was 90%.
With COc1ccc(NC(=O)c2ccc3c(-c4nc5ccccc5[nH]4)n[nH]c3c2)cn1 the “% inhibition” value [1] was 81%, the “% inhibition” value [2] was 11% and the “% inhibition” value [3] was 64%.
For CC(=O)N1CCN(C(=O)c2ccc3c(-c4nc5ccccc5[nH]4)n[nH]c3c2)CC1, the “% inhibition” value [1] was 5%, the “% inhibition” value [2] was 7% and the “% inhibition” value [3] was 23%.
CC1CN(C(=O)c2ccc3c(-c4nc5ccccc5[nH]4)n[nH]c3c2)CC(C)O1 (stereo not drawn) was tested, and the “% inhibition” value [1] was 21%, the “% inhibition” value [2] was 7% and the “% inhibition” value [3] was 40%.
In the case of O=C(c1ccc2c(-c3nc4ccccc4[nH]3)n[nH]c2c1)N1CCCC(CO)C1 (stereo not drawn), the “% inhibition” value [1] is reported as 96%, the “% inhibition” value [2] is reported as 6% and the “% inhibition” value [3] is reported as 134%.
For O=C(c1ccc2c(-c3nc4ccccc4[nH]3)n[nH]c2c1)N1CCN(C(=O)c2ccco2)CC1, the “% inhibition” value [1] was −20%, the “% inhibition” value [2] was 6% and the “% inhibition” value [3] was 25%.
With NC(=O)C1CCN(C(=O)c2ccc3c(-c4nc5ccccc5[nH]4)n[nH]c3c2)CC1 the “% inhibition” value [1] was 44%, the “% inhibition” value [2] was 5% and the “% inhibition” value [3] was 82%.
In the case of O=C(Nc1ccc2cn[nH]c2c1)c1ccc2c(-c3nc4ccccc4[nH]3)n[nH]c2c1, the “% inhibition” value [1] is reported as 0%, the “% inhibition” value [2] is reported as 2% and the “% inhibition” value [3] is reported as 4%.
For O=C(c1ccc2c(-c3nc4ccccc4[nH]3)n[nH]c2c1)N1CCCC1, the “% inhibition” value [1] was 8%, the “% inhibition” value [2] was 0% and the “% inhibition” value [3] was 23%.
In the case of O=C(Nc1ccc2[nH]ncc2c1)c1ccc2c(-c3nc4ccccc4[nH]3)n[nH]c2c1, the “% inhibition” value [1] is reported as 28%, the “% inhibition” value [2] is reported as −1% and the “% inhibition” value [3] is reported as 80%.
O=C(c1ccc2c(-c3nc4ccccc4[nH]3)n[nH]c2c1)N1CCC(O)C1 (stereo not drawn) was tested, and the “% inhibition” value [1] was 10%, the “% inhibition” value [2] was −2% and the “% inhibition” value [3] was 19%.
In the case of CC1C(=O)NCCN1C(=O)c1ccc2c(-c3nc4ccccc4[nH]3)n[nH]c2c1 (stereo not drawn), the “% inhibition” value [1] is reported as 12%, the “% inhibition” value [2] is reported as −3% and the “% inhibition” value [3] is reported as 40%.
With O=C(NC1CCCCC1)c1ccc2c(-c3nc4ccccc4[nH]3)n[nH]c2c1 the “% inhibition” value [1] was 3%, the “% inhibition” value [2] was −3% and the “% inhibition” value [3] was 46%.
With C=CCN1CCN(C(=O)c2ccc3c(-c4nc5ccccc5[nH]4)n[nH]c3c2)CC1 the “% inhibition” value [1] was 39% and the “% inhibition” value [2] was −4%.
In the case of O=C(c1ccc2c(-c3nc4ccccc4[nH]3)n[nH]c2c1)N1CCCC(O)C1 (stereo not drawn), the “% inhibition” value [1] is reported as 37%, the “% inhibition” value [2] is reported as −5% and the “% inhibition” value [3] is reported as 20%.
In the case of O=C(c1ccc2c(-c3nc4ccccc4[nH]3)n[nH]c2c1)N1CCOCC1, the “% inhibition” value [1] is reported as 10%, the “% inhibition” value [2] is reported as −7% and the “% inhibition” value [3] is reported as 59%.
In the case of CN(CCO)C(=O)c1ccc2c(-c3nc4ccccc4[nH]3)n[nH]c2c1, the “% inhibition” value [1] is reported as 27%, the “% inhibition” value [2] is reported as −8% and the “% inhibition” value [3] is reported as 48%.
CCOC(=O)C1CCCN(C(=O)c2ccc3c(-c4nc5ccccc5[nH]4)n[nH]c3c2)C1 (stereo not drawn) was tested, and the “% inhibition” value [1] was 64%, the “% inhibition” value [2] was −8% and the “% inhibition” value [3] was 83%.
With CN(C)C(=O)c1ccc2c(-c3nc4ccccc4[nH]3)n[nH]c2c1 the “% inhibition” value [1] was 35%, the “% inhibition” value [2] was −9% and the “% inhibition” value [3] was 42%.
CCOC(=O)CC(C)NC(=O)c1ccc2c(-c3nc4ccccc4[nH]3)n[nH]c2c1 (stereo not drawn) was tested, and the “% inhibition” value [1] was 31%, the “% inhibition” value [2] was −17% and the “% inhibition” value [3] was 20%.
With CN(CC#N)C(=O)c1ccc2c(-c3nc4ccccc4[nH]3)n[nH]c2c1 the “% inhibition” value [1] was 56%, the “% inhibition” value [2] was −17% and the “% inhibition” value [3] was 17%.
In the case of CC1(C)CC(NC(=O)c2ccccc2Sc2ccc3c(/C=C/c4ccccn4)n[nH]c3c2)CC(C)(C)N1, the “% inhibition” value [4] is reported as 35% and the “% inhibition” value [5] is reported as 10%.
In the case of Nc1ccc(CCNC(=O)c2ccccc2Sc2ccc3c(/C=C/c4ccccn4)n[nH]c3c2)cc1, the “% inhibition” value [4] is reported as 32% and the “% inhibition” value [5] is reported as 31%.
In the case of O=C(NCCN1CCNC1=O)c1ccccc1Sc1ccc2c(/C=C/c3ccccn3)n[nH]c2c1, the “% inhibition” value [4] is reported as 5% and the “% inhibition” value [5] is reported as 1%.
With NC(=O)CCNC(=O)c1ccccc1Sc1ccc2c(/C=C/c3ccccn3)n[nH]c2c1 the “% inhibition” value [4] was 8% and the “% inhibition” value [5] was 18%.
In the case of CCC(CC)CCCC(C)NC(=O)c1ccccc1Sc1ccc2c(/C=C/c3ccccn3)n[nH]c2c1 (stereo not drawn), the “% inhibition” value [4] is reported as 3% and the “% inhibition” value [5] is reported as 15%.
In the case of CN(C)CCCCNC(=O)c1ccccc1Sc1ccc2c(/C=C/c3ccccn3)n[nH]c2c1, the “% inhibition” value [4] is reported as 23% and the “% inhibition” value [5] is reported as 16%.
With CN(C)CCCCCCNC(=O)c1ccccc1Sc1ccc2c(/C=C/c3ccccn3)n[nH]c2c1 the “% inhibition” value [4] was 42% and the “% inhibition” value [5] was 22%.
In the case of CC(CNC(=O)c1ccccc1Sc1ccc2c(/C=C/c3ccccn3)n[nH]c2c1)N(C)C (stereo not drawn), the “% inhibition” value [4] is reported as −9% and the “% inhibition” value [5] is reported as 1%.
For O=C(NCCCN1CCCCCC1)c1ccccc1Sc1ccc2c(/C=C/c3ccccn3)n[nH]c2c1, the “% inhibition” value [4] was 25% and the “% inhibition” value [5] was −5%.
For O=C(NCCCN1CCCCC1)c1ccccc1Sc1ccc2c(/C=C/c3ccccn3)n[nH]c2c1, the “% inhibition” value [4] was 16% and the “% inhibition” value [5] was 7%.
O=C(NC1CCS(=O)(=O)C1)c1ccccc1Sc1ccc2c(/C=C/c3ccccn3)n[nH]c2c1 (stereo not drawn) was tested, and the “% inhibition” value [4] was 27% and the “% inhibition” value [5] was 2%.
For O=C(O)CNC(=O)CCNC(=O)c1ccccc1Sc1ccc2c(/C=C/c3ccccn3)n[nH]c2c1, the “% inhibition” value [4] was 49% and the “% inhibition” value [5] was −9%.
In the case of N#CCNC(=O)c1ccccc1Sc1ccc2c(/C=C/c3ccccn3)n[nH]c2c1, the “% inhibition” value [4] is reported as 18% and the “% inhibition” value [5] is reported as 40%.
With O=C(CNC(=O)c1ccccc1Sc1ccc2c(/C=C/c3ccccn3)n[nH]c2c1)NO the “% inhibition” value [4] was 5% and the “% inhibition” value [5] was 9%.
In the case of O=C(O)CNC(=O)c1ccccc1Sc1ccc2c(/C=C/c3ccccn3)n[nH]c2c1, the “% inhibition” value [4] is reported as 8% and the “% inhibition” value [5] is reported as 23%.
With O=C(NCCS(=O)(=O)O)c1ccccc1Sc1ccc2c(/C=C/c3ccccn3)n[nH]c2c1 the “% inhibition” value [4] was 16% and the “% inhibition” value [5] was 21%.
In the case of CCC(O)CNC(=O)c1ccccc1Sc1ccc2c(/C=C/c3ccccn3)n[nH]c2c1 (stereo not drawn), the “% inhibition” value [4] is reported as 13% and the “% inhibition” value [5] is reported as 23%.
In the case of CC(C)(CO)CNC(=O)c1ccccc1Sc1ccc2c(/C=C/c3ccccn3)n[nH]c2c1, the “% inhibition” value [4] is reported as 8% and the “% inhibition” value [5] is reported as 22%.
CCN1CC(NC(=O)c2ccccc2Sc2ccc3c(/C=C/c4ccccn4)n[nH]c3c2)CN1CC was tested, and the “% inhibition” value [4] was 2% and the “% inhibition” value [5] was −19%.
For CCN(CCNC(=O)c1ccccc1Sc1ccc2c(/C=C/c3ccccn3)n[nH]c2c1)c1cccc(C)c1, the “% inhibition” value [4] was 17% and the “% inhibition” value [5] was 1%.
